Results on 2 compounds are retold here after article PMC12036875, “Mitochondria-targeting natural product rhein conjugated with dichloroacetate as the dual inhibitor of glycolysis and oxidative phosphorylation to off energize cancer cells and induce ROS storm” (Theranostics, 2025).

A short description of data set [1]: Tissue distribution after oral administration. Format: in vivo. The settings on record: 4T1-bearing Balb/c mice, oral 20 mg/kg. The protocol: 4T1-bearing Balb/c mice were orally administered with Rhein-DCA (20 mg/kg), major organs (heart, liver, spleen, lung, kidney) and tumor tissues were harvested at 2, 6, and 24 h after administration. […] The Rhein-DCA conjugate could be absorbed rapidly and broadly distributed in major organs tissue after administration.
4T1-bearing Balb/c mice were orally administered with Rhein-DCA (20 mg/kg), major organs (heart, liver, spleen, lung, kidney) and tumor tissues were harvested and weighed at 2, 6, and 24 h after administration. Each organ was homogenized with sonication in ice bath (power 400 W, the duration of sonication is 3 s, the interval duration of 3 s, total sonication time of 20 min). Centrifuge the homogenate at 13000 G for 10 min at 4°C to obtain the supernatant for HPLC.

In data set [2] the test system is 4T1 cells. The data set can be described thus: Cell apoptosis assay (Annexin V-Alexa Fluor 647/PI flow cytometry). The conditions noted are these: 6.25 μM, 24 h. Format: cell-based, Mouse. The protocol:
Correspondingly, the fall of intracellular ATP amount and the release of Cyt C directly drove cells into apoptosis. Flow cytometry apoptosis assay was conducted on the 4T1 cells after culture with different drugs at 6.25 μM for 24 h. The treated cells were stained with Annexin V-Alexa Flour 647 and PI. […] Since the antitumor effect could only be achieved when DCA was used in high dose, it is in agreement with reported literature. Similar to rhein group, the apoptosis rate in R + D group increased to approximately 12%.
Annexin V/PI staining was used to analyze the apoptosis of cancer cells. 4T1 cells were seeded into 6-well plates at a density of 10 × 10^4 cells per well. The cells were permitted to resume exponential growth for 24 h and treated with various drugs. After another 24 h incubation, the supernatant was collected in 1.5 mL tubes. The cells were treated with 100 μL of 0.25% Trypsin-EDTA for 2 min, subsequently 300 μL fresh medium were added which was combined with the corresponding supernatant. The cells were obtained following centrifugation at 434 G for 5 min and washed twice with PBS, and then resuspended in 500 μL of binding buffer (1 ×). The cells were stained with Annexin V/Alexa Fluor 647 and PI (20 μg/mL) for 5 min at room temperature in the dark. The fluorescence signal was immediately detected by flow cytometry and the data were analyzed by FlowJo software.

Data set [3] concerns 4T1 cells. The data set is described as follows: Intracellular stability by HPLC. The class given is in vitro ADME, Mouse. The protocol:
Stability of drugs is vital indexes for anticancer application. The stability of Rhein-DCA conjugate in vitro was performed by dispersing it in 2.5% dimethyl sulfoxide (DMSO)-PBS at room temperature for 0, 2, 6 and 12 h. […] Furthermore, we also quantitatively analyzed the intracellular stability of Rhein-DCA using high-performance liquid chromatography (HPLC). After 4 h of uptake, the intracellular concentration of Rhein-DCA was 0.095 μg/10^6 cells within 4T1 cells.
UV-Vis spectra were used to investigate the stability of Rhein-DCA conjugate. The Rhein-DCA was dispersed in 2.5% DMSO-PBS at room temperature, and the absorption spectrum was monitored at 0, 2, 6 and 12 h. High performance liquid chromatography (HPLC) was used to investigate the intracellular stability of Rhein-DCA conjugate. 4T1 cells were seeded in cell culture dish (diameter of 10 cm) at a density of 2 × 10^6 cells per dish and cultured in the incubator for 24 h. Then the cells were further treated with Rhein-DCA conjugate at a concentration of 11 μg/mL for 4 h. After removing media and washing the cells three times with PBS to remove the residual Rhein-DCA, the cells were incubated for another 2 h. Then, the cells were collected and washed twice with PBS. The cells were suspended in 1 mL methanol to obtain cell lysates by three freeze-thaw. Then the supernatant was collected after centrifugation at 13000 G for 10 min for HPLC analysis. A C18 column was used with methanol / 0.1% H₃PO₄ (83:17) as the mobile phase, flow rate 1.0 mL/min, fluorescence detector with an excitation wavelength of 443 nm and an emission wavelength of 530 nm.

Data set [4] in a line: Pharmacokinetic study after oral administration. Format: in vivo, Sprague-Dawley (SD) rats. The conditions noted are these: SD rats, I.G. 20 mg/kg, mean ± S.D., n = 3. The protocol:
HPLC was conducted to evaluate the absorption and distribution of Rhein-DCA conjugate in […] after oral administration. Rhein-DCA was orally administered to Sprague-Dawley (SD) rats at 20 mg/kg, and the concentration of the drug in the blood samples was serially measured at predefined time points.
HPLC was used to evaluate the absorption and distribution of Rhein-DCA in […] after oral administration. Rhein-DCA was orally administered to Sprague-Dawley (SD) rats at 20 mg/kg. and the blood samples were serially collected at predefined time points (0.5, 1.5, 2, 3, 4, 5, 6, 8, 10 and 24 h). Centrifuge the blood at 3000 G for 10 min to separate serum, and the serum was mixed with methanol (1:3, v/v), vortexed for 3 min, and centrifuged at 13000 G for 10 min. The supernatant was filtered through a 0.22 µm membrane for HPLC assay. Pharmacokinetic parameters were derived using DAS 2.0 software with non-compartmental analysis (NCA).

In a further data set the test system is 4T1 tumor metastasis. The data set is described as follows: Lung and liver metastasis (images, H&E). The class given is in vivo, Balb/c mice. The conditions noted are these: 20 mg/kg oral, 24 days. The protocol: Correspondingly, the lung and liver tissues, which are the most common sites for primary tumor metastasis, were obtained and imaged, and then subjected to H&E staining for histopathological examination. […] The major organs (heart, liver, spleen, lung and kidney) were also excised for photographing and H&E staining. The blood biochemistry indexes, including ALT, AST, CREA and UREA were tested.

A word on the AUC(0-inf): it is total exposure, with the tail of the curve extrapolated. A low value points to less exposure. The AUC(0-t) is exposure summed from dosing to a finite time, without extrapolation to infinity. High values mean high exposure, low ones low exposure. Broadly, the Cmax is the maximum level reached in the sampled fluid or tissue. For orientation: half-life means how long it takes for the measured level to halve. Read a low half-life as fast loss. Take `O=C(OCCOC(=O)C(Cl)Cl)c1cc(O)c2c(c1)C(=O)c1cccc(O)c1C2=O` [Rhein-DCA]: in data set [1], the intra-tumoral retention entry is “remaining quantifiable up to 24 h” and the “systemic clearance from major organs by 24 h” value is reported as “extremely completed”. Also, the Tmax in data set [1] (mouse, tumor, sampled at 2, 6, 24 h, read-out: time of peak concentration in tumors) was determined as 6 h. Also, the apoptosis rate in the data set with 4T1 cells [2] is 37.4%. Besides, the “intracellular concentration after 4 h of uptake” value in the data set with 4T1 cells [3] (11 μg/mL, 4 h) is listed as 0.095 μg/10^6 cells. The “residual intracellular concentration after removing drug and incubating another 2 h” value with 4T1 cells [3] (4 h uptake then 2 h drug-free) worked out at 0.080 μg/10^6 cells. Moreover, the intracellular degradation rate entry in the data set with 4T1 cells [3] (within 2 h) is “approximately 15.7%”. In data set [4], this compound yielded a CL of 37.5 mL/min/kg and a Vd of 17.11 ± 8.08 L/kg. In data set [4] (Sprague-Dawley, rat, serum, po), the AUC(0-inf) is 8980 ng·h/mL, the AUC(0-t) was 8220 ± 330 ng·h/mL, the peak concentration (Cmax) stood at 2680 ng/mL and the Tmax came to 1.5 h. The same compound showed a half-life in data set [4] (Sprague-Dawley, rat, serum, po) of 5.54 h. Besides, the “metastatic lesions in lungs and livers” value with 4T1 tumor metastasis was “significantly decreased the number and size of metastatic lesions”.
On to `O=C(O)C(Cl)Cl` [DCA, Dichloroacetate], for which, in the data set with 4T1 cells [2], the “apoptosis in comparison with control group, in words” value is listed as “no obvious changes”.
